In patent US6677488B2, “Substituted biphenyl compounds for the treatment of inflammation” (G.D. Searle & Co., priority 1995, dated 2004):

Row | melting point | Compound
1 | 151.5 to 152 °C | Cc1cc(-c2cc(F)c(F)cc2-c2ccc(S(N)(=O)=O)cc2)ccc1F [Example 34, 4-[4,5-Difluoro-2-(4-fluoro-3-methylphenyl)phenyl)benzenesulfonamide]
2 | 147 to 148 °C | Cc1ccc(-c2cc(F)c(F)cc2-c2ccc(S(C)(=O)=O)cc2)cc1 [Example 23, 1,2-Difluoro-4-(4-methylphenyl)-5-[4-(methylsulfonyl)phenyl]benzene]
3 | 190.2 to 191.5 °C | NS(=O)(=O)c1ccc(-c2cc(F)c(F)cc2-c2ccc(F)cc2)cc1 [Example 13, 4-[3,4-Difluoro-6-(4-fluorophenyl)phenyl]benzenesulfonamide]
4 | 141 to 142.5 °C | Cc1ccc(-c2cc(F)c(F)cc2-c2ccc(S(C)(=O)=O)cc2)cn1 [Example 47, 5-[4,5-Difluoro-4′-(methylsulfonyl)-(1,1′-biphenyl)-2-yl]-2-methylpyridine]
5 | 132.2 to 132.8 °C | COc1ccc(-c2cc(F)c(F)cc2-c2ccc(S(N)(=O)=O)cc2)cc1F [Example 21, 4-[4,5-Difluoro-2-(3-fluoro-4-methoxyphenyl)phenyl]benzenesulfonamide]
6 | 173 to 174 °C | CS(=O)(=O)c1ccc(-c2cc3c(cc2-c2ccc(F)cc2)OCO3)cc1 [Example 17, 5-(4-Fluorophenyl)-6-[4-(methylsulfonyl)phenyl]-1,3-benzodioxole]
7 | 103 to 104 °C | Cc1ccc(-c2cc(F)c(F)cc2-c2ccc(S(N)(=O)=O)cc2)cc1 [Example 25, 4-[4,5-Difluoro-2-(4-methylphenyl)phenyl]benzenesulfonamide]
8 | 161.5 to 162.3 °C | COc1ccc(-c2ccccc2-c2ccc(S(C)(=O)=O)cc2)cc1Cl [Example 5, 2-Chloro-1-methoxy-4-[2-[4-(methylsulfonyl)phenyl]phenyl]benzene]
9 | 142 to 143 °C | NS(=O)(=O)c1ccc(-c2cc(F)c(F)cc2-c2ccc3c(c2)OCO3)cc1 [Example 26, 4-[2-(1,3-Benzodioxol-5-yl)-4,5-difluorophenyl]benzenesulfonamide]
10 | 167.2 to 167.5 °C | Cc1cc(-c2cc(F)c(F)cc2-c2ccc(S(C)(=O)=O)cc2)ccc1F [Example 31, 1,2-Difluoro-4-(4-fluoro-3-methylphenyl)-5-[4-(methylsulfonyl)phenyl]benzene]
11 | 162.5 to 162.8 °C | NS(=O)(=O)c1ccc(-c2cc(F)c(F)cc2-c2ccc(F)c(Cl)c2)cc1 [Example 16, 4-[2-(3-Chloro-4-fluorophenyl)-4,5-difluorophenyl]benzenesulfonamide]
12 | 187.3 to 188.2 °C | NS(=O)(=O)c1ccc(-c2ccccc2-c2ccc(F)cc2)cc1 [Example 2, 4-[2-(4-Fluorophenyl)phenyl]benzenesulfonamide]
13 | > 96 °C (dec.) | Cc1ccc(-c2cc(F)c(F)cc2-c2ccc(S(N)(=O)=O)cc2)cn1 [Example 48, 4-[4,5-Difluoro-2-(6-methylpyridin-3-yl)phenyl]benzenesulfonamide]
14 | 110 to 111 °C | CS(=O)(=O)c1ccc(-c2cc(F)c(F)cc2-c2ccc3c(c2)OCO3)cc1 [Example 24, 5-[4,5-Difluoro-2-[4-(methylsulfonyl)phenyl]phenyl]-1,3-benzodioxole]
15 | 143.5 to 144.5 °C | CS(=O)(=O)c1ccc(-c2cc(Cl)c(Cl)cc2-c2ccc(F)cc2)cc1 [Example 44, 1,2-Dichloro-4-(4-fluorophenyl)-5-[4-(methylsulfonyl)phenyl]benzene]
